One test has as its target Cbl-b (Homo sapiens (Human), UniProt Q13191). Description: Cbl-b LCK Ub TR-FRET assay (Cbl-b Lck HTRF). In kind it is biochemical. Conditions: for (fold-selectivity): Cbl-b and C-Cbl selectivity, Lck HTRF; for IC50: read-out: Cbl-b Lck HTRF IC50. How it is done: (§1) Compounds were 3-fold serially diluted in DMSO in a 384-well polypropylene plate (#P-05525-BC; Labcyte) to generate a source plate with 10 concentrations of each compound, top concentration=2 mM. 80 nL of DMSO or compounds were transferred to each well of a black 384-well ProxiPlate (#6008260; PerkinElmer) using a Labcyte Echo. 1× assay buffer (50 mM HEPES pH7.0, 100 mM NaCl, 0.01% BSA, 0.01% Triton-X100, 1 mM DTT), 2× enzyme solution (16 nM Biotin-Cbl-b or 12 nM Biotin-c-Cbl in 1× assay buffer), 2× kinase mixture (120 nM His-LCK, 1 mM ATP, 10 mM MgCl2 in assay buffer) and 2.33× detection mixture (4.66× solution 1: 163 nM Anti-HA-D2 antibody (#610HADAB; PerkinElmer), 27.96 nM Streptavidin-EU (#AD0062; PerkinElmer), 1.398 mM EDTA in 1× assay buffer+4.66× solution 2: 2.796 μM UBE2D2/Methylated-HA-Ubiquitin thioester adduct (BostonBiochem) in 1× assay buffer) were prepared. 4 μL of 2× enzyme solution was added to each well containing compound, briefly centrifuged to mix, and incubated for 60 min at room temperature. 4 μL of 2× kinase mixture was added, briefly centrifuged to mix, and incubated for 90 min. at room temperature. 6 μL of detection mixture was added to all wells and briefly centrifuged before incubating for 20 min at room temperature. Plates were read for TR-FRET using an Envision at excitation 340 nm, emission at 615 and 665 nm, 4 flashes per well. IC50 was generated using no LCK as the low control and DMSO as the high control.
(§2) Cbl-b Lck HTRF data in Table 3 is measured according to Example 25 herein; C-cbl Lck HTRF data is measured according to Example 25 herein.
(§3) SPR and the LCK biochemical assay are orthogonal assays: SPR is a protein binding assay while the LCK assay is an enzyme activity assay. SPR measures compound binding affinity to CBL-B/C-CBL, whereas LCK assay measures compound inhibition of CBL-B/C-CBL ubiquitin transfer activity.
For orientation: Time-resolved FRET reads energy transfer from a long-lived donor to a nearby acceptor.

For another test, the target named is c-Cbl (Homo sapiens (Human), UniProt P22681). Description: C-cbl LCK Ub TR-FRET assay (C-cbl Lck HTRF). In kind it is biochemical. The method, then: as §1, §2, §3
Sequence of c-Cbl (P22681 47-435): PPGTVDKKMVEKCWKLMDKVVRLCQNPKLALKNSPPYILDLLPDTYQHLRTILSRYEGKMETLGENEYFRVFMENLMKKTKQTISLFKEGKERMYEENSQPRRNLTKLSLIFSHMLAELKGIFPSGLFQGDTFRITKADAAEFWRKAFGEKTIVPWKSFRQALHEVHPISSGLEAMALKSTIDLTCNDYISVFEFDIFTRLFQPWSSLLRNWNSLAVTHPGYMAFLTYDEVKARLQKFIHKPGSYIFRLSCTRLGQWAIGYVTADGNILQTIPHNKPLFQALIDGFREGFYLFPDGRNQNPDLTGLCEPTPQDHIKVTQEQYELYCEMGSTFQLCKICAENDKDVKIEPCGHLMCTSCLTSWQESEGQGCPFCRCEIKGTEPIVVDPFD

Sequence of Cbl-b (Q13191 40-426): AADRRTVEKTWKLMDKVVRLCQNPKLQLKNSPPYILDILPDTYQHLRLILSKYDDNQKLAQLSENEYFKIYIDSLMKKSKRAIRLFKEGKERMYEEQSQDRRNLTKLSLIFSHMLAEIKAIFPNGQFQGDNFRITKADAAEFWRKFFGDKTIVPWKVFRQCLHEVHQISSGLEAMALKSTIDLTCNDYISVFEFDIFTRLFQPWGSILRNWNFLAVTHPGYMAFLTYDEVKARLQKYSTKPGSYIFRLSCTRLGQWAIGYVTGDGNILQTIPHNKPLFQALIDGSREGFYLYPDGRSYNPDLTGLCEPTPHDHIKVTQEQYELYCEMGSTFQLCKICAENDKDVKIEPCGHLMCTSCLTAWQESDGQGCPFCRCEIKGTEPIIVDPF

Consider `C[C@H](c1cc(C(=O)Nc2cccc(C3([C@H](F)c4nncn4C)COC3)c2)nc(C2CC2)c1)N1CCC2(CC2)C1` [Compound 25, 4-((R)-1-(5-azaspiro[2.4]heptan-5-yl)ethyl)-6-cyclopropyl-N-(3-(3-((S)-fluoro(4-methyl-4H-1,2,4-triazol-3-yl)methyl)oxetan-3-yl)phenyl)picolinamide], for which, on Cbl-b, the “(fold-selectivity)” value was “(1.0x)” and the IC50 came to 20 nM. The same compound returned an IC50 at c-Cbl of 20 nM.

As to `C[C@H](Cc1nncn1C)c1cccc(NC(=O)c2nc(C(F)(F)F)c(CN3CCC4(CC4)C3)[nH]2)c1` [Compound 26, (R)-5-(5-azaspiro[2.4]heptan-5-ylmethyl)-N-(3-(1-(4-methyl-4H-1,2,4-triazol-3-yl)propan-2-yl)phenyl)-4-(trifluoromethyl)-1H-imidazole-2-carboxamide], on Cbl-b, the “(fold-selectivity)” value is “(1.5x)” and the IC50 was 1500 nM. On c-Cbl, this compound had an IC50 of 2200 nM.

As to `Cn1cnnc1[C@H](F)[C@](C)(F)c1cccc(NC(=O)c2cc(CN3CCC4(CC4)C3)cc(C3CC3)n2)c1` [Compound 35, 4-(5-azaspiro[2.4]heptan-5-ylmethyl)-6-cyclopropyl-N-(3-((1S,2R)-1,2-difluoro-1-(4-methyl-4H-1,2,4-triazol-3-yl)propan-2-yl)phenyl)picolinamide], the “(fold-selectivity)” value at Cbl-b is given as “(1.8x)”. The IC50 at Cbl-b came out at 23 nM; on c-Cbl, 400 nM.

With `Cn1cnnc1[C@H](F)[C@@](C)(F)c1cccc(NC(=O)c2cc(CN3CCC4(CC4)C3)cc(C3CC3)n2)c1` [Compound 36, 4-(5-azaspiro[2.4]heptan-5-ylmethyl)-6-cyclopropyl-N-(3-((1S,2S)-1,2-difluoro-1-(4-methyl-4H-1,2,4-triazol-3-yl)propan-2-yl)phenyl)picolinamide], on Cbl-b, the “(fold-selectivity)” value was “(1.8x)” and the IC50 is 140 nM. This compound had an IC50 on c-Cbl of 240 nM.

With `Cn1cnnc1[C@@H](F)[C@@](C)(F)c1cccc(NC(=O)c2cc(CN3CCC4(CC4)C3)cc(C3CC3)n2)c1` [Compound 37, 4-(5-azaspiro[2.4]heptan-5-ylmethyl)-6-cyclopropyl-N-(3-((1R,2S)-1,2-difluoro-1-(4-methyl-4H-1,2,4-triazol-3-yl)propan-2-yl)phenyl)picolinamide], at Cbl-b, the “(fold-selectivity)” value is “(2.0x)” and the IC50 amounted to 780 nM. This compound displayed a half-maximal inhibitory concentration (IC50) against c-Cbl of 1500 nM.

`Cn1cnnc1[C@@H](F)[C@](C)(F)c1cccc(NC(=O)c2cc(CN3CCC4(CC4)C3)cc(C3CC3)n2)c1` [Compound 38, 4-(5-azaspiro[2.4]heptan-5-ylmethyl)-6-cyclopropyl-N-(3-((1R,2R)-1,2-difluoro-1-(4-methyl-4H-1,2,4-triazol-3-yl)propan-2-yl)phenyl)picolinamide]: on Cbl-b, the “(fold-selectivity)” value was “(1.7x)” and the IC50 stood at 25 nM. On c-Cbl, this compound yielded an IC50 of 42 nM.

As for `Cn1cnnc1[C@H](F)[C@](C)(F)c1cccc(NC(=O)c2cc(CN3CCC4(CC4)C3)nc(C3CC3)n2)c1` [Compound 39, 6-(5-azaspiro[2.4]heptan-5-ylmethyl)-2-cyclopropyl-N-(3-((1S,2R)-1,2-difluoro-1-(4-methyl-4H-1,2,4-triazol-3-yl)propan-2-yl)phenyl)pyrimidine-4-carboxamide], on Cbl-b, the “(fold-selectivity)” value is listed as “(1.9x)” and the 50% inhibitory concentration (IC50) is 180 nM. At c-Cbl, this compound had an IC50 of 340 nM.

As for `Cn1cnnc1[C@H](F)[C@@](C)(F)c1cccc(NC(=O)c2cc(CN3CCC4(CC4)C3)nc(C3CC3)n2)c1` [Compound 40, 6-(5-azaspiro[2.4]heptan-5-ylmethyl)-2-cyclopropyl-N-(3-((1S,2S)-1,2-difluoro-1-(4-methyl-4H-1,2,4-triazol-3-yl)propan-2-yl)phenyl)pyrimidine-4-carboxamide], at Cbl-b, the “(fold-selectivity)” value was “(2.3x)” and the IC50 came out at 880 nM. For the same compound, the IC50 against c-Cbl was 2100 nM.

Regarding `Cn1cnnc1[C@@H](F)[C@@](C)(F)c1cccc(NC(=O)c2cc(CN3CCC4(CC4)C3)nc(C3CC3)n2)c1` [Compound 41, 6-(5-azaspiro[2.4]heptan-5-ylmethyl)-2-cyclopropyl-N-(3-((1R,2S)-1,2-difluoro-1-(4-methyl-4H-1,2,4-triazol-3-yl)propan-2-yl)phenyl)pyrimidine-4-carboxamide], on Cbl-b, the “(fold-selectivity)” value is “(2.5x)” and the IC50 is 4800 nM. Also, the IC50 at c-Cbl is 12000 nM.

Turning to `Cn1cnnc1[C@@H](F)[C@](C)(F)c1cccc(NC(=O)c2cc(CN3CCC4(CC4)C3)nc(C3CC3)n2)c1` [Compound 42, 6-(5-azaspiro[2.4]heptan-5-ylmethyl)-2-cyclopropyl-N-(3-((1R,2R)-1,2-difluoro-1-(4-methyl-4H-1,2,4-triazol-3-yl)propan-2-yl)phenyl)pyrimidine-4-carboxamide], at Cbl-b, the “(fold-selectivity)” value is given as “(1.4x)” and the IC50 came out at 190 nM. The compound further gave an IC50 against c-Cbl of 270 nM.

As to `Cn1cnnc1[C@H](F)[C@](C)(F)c1cccc(NC(=O)c2cc(CN3CC(C)(F)C3)nc(C3CC3)n2)c1` [Compound 43, 2-cyclopropyl-N-(3-((1S,2R)-1,2-difluoro-1-(4-methyl-4H-1,2,4-triazol-3-yl)propan-2-yl)phenyl)-6-((3-fluoro-3-methylazetidin-1-yl)methyl)pyrimidine-4-carboxamide], on Cbl-b, the “(fold-selectivity)” value is “(2.3x)” and the IC50 came to 320 nM. The compound further came in with an IC50 against c-Cbl of 740 nM.

Regarding `Cn1cnnc1[C@H](F)[C@@](C)(F)c1cccc(NC(=O)c2cc(CN3CC(C)(F)C3)nc(C3CC3)n2)c1` [Compound 44, 2-cyclopropyl-N-(3-((1S,2S)-1,2-difluoro-1-(4-methyl-4H-1,2,4-triazol-3-yl)propan-2-yl)phenyl)-6-((3-fluoro-3-methylazetidin-1-yl)methyl)pyrimidine-4-carboxamide], the “(fold-selectivity)” value on Cbl-b is “(2.1x)”. The IC50 was 2300 nM on Cbl-b and 4900 nM against c-Cbl.

For `Cn1cnnc1[C@H](F)C1(c2cccc(NC(=O)c3cc(CN4CC(C)(F)C4)cc(C(F)(F)F)n3)c2)COC1` [Compound 60, (R)-N-(3-(3-(fluoro(4-methyl-4H-1,2,4-triazol-3-yl)methyl)oxetan-3-yl)phenyl)-4-((3-fluoro-3-methylazetidin-1-yl)methyl)-6-(trifluoromethyl)picolinamide], on Cbl-b, the “(fold-selectivity)” value was “(2.5x)” and the IC50 was found to be 130 nM. The half-inhibitory concentration (IC50) on c-Cbl amounted to 330 nM.

As for `Cn1cnnc1[C@@H](F)C1(c2cccc(NC(=O)c3cc(CN4CC(C)(F)C4)cc(C(F)(F)F)n3)c2)COC1` [Compound 61, (S)-N-(3-(3-(fluoro(4-methyl-4H-1,2,4-triazol-3-yl)methyl)oxetan-3-yl)phenyl)-4-((3-fluoro-3-methylazetidin-1-yl)methyl)-6-(trifluoromethyl)picolinamide], at Cbl-b, the “(fold-selectivity)” value is “(2.3x)” and the IC50 is 180 nM. Besides, 420 nM corresponded to half-maximal inhibition against c-Cbl (IC50).

For the compound `Cn1cnnc1[C@H](F)C1(c2cccc(NC(=O)c3cc(CN4CCC5(CC5)C4)nc(C4CC4)n3)c2)COC1` [Compound 62, (R)-6-((5-azaspiro[2.4]heptan-5-yl)methyl)-2-cyclopropyl-N-(3-(3-(fluoro(4-methyl-4H-1,2,4-triazol-3-yl)methyl)oxetan-3-yl)phenyl)pyrimidine-4-carboxamide], on Cbl-b, the “(fold-selectivity)” value is “(1.2x)”. Also, the IC50 at Cbl-b is 120 nM; at c-Cbl, 140 nM.

With `Cn1cnnc1[C@@H](F)C1(c2cccc(NC(=O)c3cc(CN4CCC5(CC5)C4)nc(C4CC4)n3)c2)COC1` [Compound 63, (S)-6-((5-azaspiro[2.4]heptan-5-yl)methyl)-2-cyclopropyl-N-(3-(3-(fluoro(4-methyl-4H-1,2,4-triazol-3-yl)methyl)oxetan-3-yl)phenyl)pyrimidine-4-carboxamide], the “(fold-selectivity)” value on Cbl-b was “(1.1x)”. Further, the IC50 amounted to 170 nM at Cbl-b and 180 nM on c-Cbl.

For the compound `Cn1cnnc1[C@H](F)C1(c2cccc(NC(=O)c3cc(CN)cc(C(F)(F)F)n3)c2)COC1.O=CO` [Compound 64, (R)-4-(aminomethyl)-N-(3-(3-(fluoro(4-methyl-4H-1,2,4-triazol-3-yl)methyl)oxetan-3-yl)phenyl)-6-(trifluoromethyl)picolinamide formate], on Cbl-b, the “(fold-selectivity)” value was “(1.2x)” and the IC50 was 200 nM. In addition, the IC50 at c-Cbl came out at 230 nM.

Take `Cn1cnnc1[C@@H](F)C1(c2cccc(NC(=O)c3cc(CN)cc(C(F)(F)F)n3)c2)COC1.O=CO` [Compound 65, (S)-4-(aminomethyl)-N-(3-(3-(fluoro(4-methyl-4H-1,2,4-triazol-3-yl)methyl)oxetan-3-yl)phenyl)-6-(trifluoromethyl)picolinamide formate]: the “(fold-selectivity)” value at Cbl-b is listed as “(1.2x)”. Moreover, the figures for the IC50 at Cbl-b and on c-Cbl were 200 nM and 230 nM, respectively.

A word on the IC50: it is the point on the concentration scale where inhibition reaches its midpoint.

The values above are taken from patent US20240300927A1, “AMIDES AS CBL-B INHIBITORS” (Genentech, Inc., priority 2021, published 2024).
